Laboratory results from ChEMBL document CHEMBL1697731, “Cheminformatics analysis of assertions mined from literature that describe drug-induced liver injury in different species” (Chem Res Toxicol, 2010).

Key:
[1] = test system: Hepatotoxicity; assay: Literature-mined compound from Fourches et al multi-species drug-induced liver injury (DILI) dataset, effect in rodents; conditions: rodentia
[2] = test system: Hepatotoxicity; assay: Literature-mined compound from Fourches et al multi-species drug-induced liver injury (DILI) dataset, effect in humans; conditions: human
[3] = test system: Hepatotoxicity; assay: Literature-mined compound from Fourches et al multi-species drug-induced liver injury (DILI) dataset, effect in non-rodents

SMILES | Hepatotoxicity [1] | Hepatotoxicity [2] | Hepatotoxicity [3]
CCCCN1C[C@H](O)[C@@H](O)[C@H](O)[C@H]1CO | drug-induced liver injury reported | no drug-induced liver injury reported | no drug-induced liver injury reported
CCOC(=O)[C@H](CCc1ccccc1)N[C@@H](C)C(=O)N1[C@H](C(=O)O)C[C@@H]2CCC[C@@H]21 | drug-induced liver injury reported | drug-induced liver injury reported | no drug-induced liver injury reported
COc1cnc(NS(=O)(=O)c2ccc(N)cc2)nc1 | no drug-induced liver injury reported | drug-induced liver injury reported | no drug-induced liver injury reported
N#Cc1cc(NC(=O)C(=O)O)c(Cl)c(NC(=O)C(=O)O)c1.NC(CO)(CO)CO | drug-induced liver injury reported | no drug-induced liver injury reported | no drug-induced liver injury reported
CC[C@@H](C(N)=O)N1CCCC1=O | no drug-induced liver injury reported | drug-induced liver injury reported | no drug-induced liver injury reported
CC1=C(CC(=O)O)c2cc(F)ccc2/C1=C\c1ccc([S+](C)[O-])cc1 (configuration not stated) | drug-induced liver injury reported | drug-induced liver injury reported | no drug-induced liver injury reported
CCOC(=O)[C@H](CCc1ccccc1)N[C@@H](C)C(=O)N1Cc2ccccc2C[C@H]1C(=O)O | no drug-induced liver injury reported | drug-induced liver injury reported | no drug-induced liver injury reported
C=Cc1c(C)c2cc3nc(c(CC(=O)NC(CC(=O)O)C(=O)O)c4nc(cc5[nH]c(cc1[nH]2)c(C)c5CC)C(C)=C4C(=O)O)C(CCC(=O)O)C3C (configuration not stated) | drug-induced liver injury reported | no drug-induced liver injury reported | no drug-induced liver injury reported
C[C@@H]1O[C@@H](O[C@@H]2C=C3CC[C@@H]4[C@H](CC[C@]5(C)[C@@H](c6ccc(=O)oc6)CC[C@]45O)[C@@]3(C)CC2)[C@H](O)[C@H](O)[C@H]1O[C@@H]1O[C@H](CO)[C@@H](O)[C@H](O)[C@H]1O | drug-induced liver injury reported | no drug-induced liver injury reported | no drug-induced liver injury reported
CCCc1nn(C)c2c(=O)[nH]c(-c3cc(S(=O)(=O)N4CCN(C)CC4)ccc3OCC)nc12 | no drug-induced liver injury reported | drug-induced liver injury reported | no drug-induced liver injury reported
CNC(=O)[C@@H](NC(=O)[C@H](CC(C)C)[C@H](O)C(=O)NO)C(C)(C)C | drug-induced liver injury reported | no drug-induced liver injury reported | no drug-induced liver injury reported
Cc1c(O)cccc1C(=O)N[C@@H](CSc1ccccc1)[C@H](O)CN1C[C@H]2CCCC[C@H]2C[C@H]1C(=O)NC(C)(C)C | no drug-induced liver injury reported | drug-induced liver injury reported | no drug-induced liver injury reported
Cc1onc(-c2ccccc2)c1C(=O)N[C@@H]1C(=O)N2[C@@H]1SC(C)(C)[C@@H]2C(=O)[O-].[Na+] | no drug-induced liver injury reported | drug-induced liver injury reported | no drug-induced liver injury reported
N[C@@H](Cc1ccc(N(CCCl)CCCl)cc1)C(=O)O | drug-induced liver injury reported | drug-induced liver injury reported | no drug-induced liver injury reported
